Positions count from the first letter of the chain named.
Columns and labels:
[1] = target: T1, BaF3 cells transfected with T315I p210 BCR-Abl (Homo sapiens, UniProt P00519, T315I, cells depend on it); experiment: Ba/F3 p210 T315I whole cell proliferation assay; assay type: cell-based; settings: 72 hours, Cell Titer Blue; read-out: Whole Cell Antiproliferation IC50, Ba/F3 p210 T315I whole cell proliferation assay
T1 construct: fused on or other part: P11274 (Breakpoint cluster region protein)
Experimental: (§1) BaF3 cells (parental or transfected with the following: wild type p210 BCR-Abl and T315I p210 BCR-Abl was obtained from Professor Richard Van Etten (New England Medical Center, Boston, Mass.). Briefly, cells were grown in RPMI 1640 supplemented with 10% characterized fetal bovine serum (HyClone, Logan, Utah) at 37 degrees Celsius, 5% CO2, 95% humidity. Cells were allowed to expand until reaching 80% saturation at which point they were subcultured or harvested for assay use.
(§2) A serial dilution of test compound was dispensed into a 96 well black clear bottom plate (Corning, Corning, N.Y.). For each cell line, three thousand cells were added per well in complete growth medium. Plates were incubated for 72 hours at 37 degrees Celsius, 5% CO2, 95% humidity. At the end of the incubation period Cell Titer Blue (Promega, Madison, Wis.) was added to each well and an additional 4.5 hour incubation at 37 degrees Celsius, 5% CO2, 95% humidity was performed. Plates were then read on a BMG Fluostar Optima (BMG, Durham, N.C.) using an excitation of 544 nm and an emission of 612 nm. Data was analyzed using Prism software (Graphpad, San Diego, Calif.) to calculate IC50's.

[2] = target: T2, Abl kinase (SEQ ID NO: 1) (Homo sapiens, UniProt P00519); experiment: Abl kinase (SEQ ID NO:1) assay, pyruvate kinase/lactate dehydrogenase coupled; settings: 2 h preincubation, ATP 500 μM; read-out: Biochemical IC50, Abl Enzyme Assay
T2 construct: purchased deCode Genetics
T2 sequence (P00519 with tags, fused parts or gaps): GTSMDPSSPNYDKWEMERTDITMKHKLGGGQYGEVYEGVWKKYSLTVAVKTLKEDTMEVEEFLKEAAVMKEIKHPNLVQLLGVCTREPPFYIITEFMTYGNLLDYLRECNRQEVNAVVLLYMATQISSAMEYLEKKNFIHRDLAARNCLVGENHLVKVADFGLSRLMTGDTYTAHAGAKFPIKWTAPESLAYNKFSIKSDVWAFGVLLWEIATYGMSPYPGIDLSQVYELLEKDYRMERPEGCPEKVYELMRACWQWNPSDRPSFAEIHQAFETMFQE
Experimental: Abl Kinase (SEQ ID NO:1) Assay
Activity of Abl kinase (SEQ ID NO: 1) was determined by following the production of ADP from the kinase reaction through coupling with the pyruvate kinase/lactate dehydrogenase system (e.g., Schindler, et al. Science (2000) 289, 1938-1942). In this assay, the oxidation of NADH (thus the decrease at A340 nm) was continuously monitored spectrophometrically. The reaction mixture (100 μl) contained Abl kinase (1 nM. Abl from deCode Genetics), peptide substrate (EAIYAAPFAKKK, 0.2 mM), MgCl2 (10 mM), pyruvate kinase (4 units), lactate dehydrogenase (0.7 units), phosphoenol pyruvate (1 mM), and NADH (0.28 mM) in 90 mM Tris buffer containing 0.2% octyl-glucoside and 3.5% DMSO, pH 7.5. Test compounds were incubated with Abl (SEQ ID NO:1) and other reaction reagents at 30° C. for 2 h before ATP (500 μM) was added to start the reaction. The absorption at 340 nm was monitored continuously for 2 hours at 30° C. on Polarstar Optima plate reader (BMG). The reaction rate was calculated using the 1.0 to 2.0 h time frame. Percent inhibition was obtained by comparison of reaction rate with that of a control (i.e. with no test compound). IC50 values were calculated from a series of percent inhibition values determined at a range of inhibitor concentrations using software routines as implemented in the GraphPad Prism software package.

[3] = target: T3, BaF3 cells transfected with wild type p210 BCR-Abl (Homo sapiens, UniProt P00519); experiment: Ba/F3 p210 whole cell proliferation assay; assay type: cell-based; settings: 72 hours, Cell Titer Blue; read-out: Whole Cell Antiproliferation IC50, Ba/F3 p210 whole cell proliferation assay
T3 construct: fused on or other part: P11274 (Breakpoint cluster region protein)
Experimental: as §1, §2

[4] = target: T4, T315I Abl kinase (SEQ ID NO:2) (Homo sapiens, UniProt P00519, T315I); experiment: T315I Abl kinase (SEQ ID NO:2) assay, pyruvate kinase/lactate dehydrogenase coupled; settings: 1 h preincubation, ATP 500 μM; read-out: Biochemical IC50, Abl T315I Enzyme Assay
T4 construct: purchased deCode Genetics
T4 sequence (P00519 with tags, fused parts or gaps T315I): T2 sequence (P00519 with tags, fused parts or gaps) with T94I
Experimental: Abl Kinase (SEQ ID NO:2) Assay
Activity of T315I Abl kinase (SEQ ID NO:2) was determined by following the production of ADP from the kinase reaction through coupling with the pyruvate kinase/lactate dehydrogenase system (e.g., Schindler, et al. Science (2000) 289, 1938-1942). In this assay, the oxidation of NADH (thus the decrease at A340 nm) was continuously monitored spectrophometrically. The reaction mixture (100 μl) contained Abl kinase (4.4 nM, […] Abl from deCode Genetics), peptide substrate (EAIYAAPFAKKK, 0.2 mM), MgCl2 (10 mM), pyruvate kinase (4 units), lactate dehydrogenase (0.7 units), phosphoenol pyruvate (1 mM), and NADH (0.28 mM) in 90 mM Tris buffer containing 0.2% octyl-glucoside and 1% DMSO, pH 7.5. Test compounds were incubated with T315I Abl (SEQ ID NO:2) and other reaction reagents at 30° C. for 1 h before ATP (500 μM) was added to start the reaction. The absorption at 340 nm was monitored continuously for 2 hours at 30° C. on Polarstar Optima plate reader (BMG). The reaction rate was calculated using the 1.0 to 2.0 h time frame. Percent inhibition was obtained by comparison of reaction rate with that of a control (i.e. with no test compound). IC50 values were calculated from a series of percent inhibition values determined at a range of inhibitor concentrations using software routines as implemented in the GraphPad Prism software package.

Compound | GI50 [1] [nM] | IC50 [2] [nM] | GI50 [3] [nM] | IC50 [4] [nM]
Cc1c(NC(=O)Nc2ccc(Oc3ccnc(-c4cnn(C)c4)c3)cc2F)cnn1C1CCCC1 [Example 23, 1-(1-cyclopentyl-5-methyl-1H-pyrazol-4-yl)-3-(2-fluoro-4-(2-(1-methyl-1H-pyrazol-4-yl)pyridin-4-yloxy)phenyl)urea] | < 1000 | < 100 | < 100 | –
Cn1cc(-c2cc(Oc3ccc(NC(=O)NC4CC(=O)N(C(C)(C)C)C4)c(F)c3)ccn2)cn1 (stereo not drawn) [Example 35, 1-(1-tert-butyl-5-oxopyrrolidin-3-yl)-3-(2-fluoro-4-(2-(1-methyl-1H-pyrazol-4-yl)pyridin-4-yloxy)phenyl)urea] | < 100000 | < 1000 | < 1000 | < 10000
CC(C)n1cnc(NC(=O)Nc2ccc(Oc3ccnc(-c4cnn(C)c4)c3)cc2F)c1 [Example 34, 1-(2-fluoro-4-(2-(1-methyl-1H-pyrazol-4-yl)pyridin-4-yloxy)phenyl)-3-(1-isopropyl-1H-imidazol-4-yl)urea] | < 1000 | < 100 | < 100 | < 100
CCc1cncc(NC(=O)Nc2ccc(Oc3ccnc(-c4cnn(C)c4)c3)cc2F)c1 [Example 32, 1-(5-ethylpyridin-3-yl)-3-(2-fluoro-4-(2-(1-methyl-1H-pyrazol-4-yl)pyridin-4-yloxy)phenyl)urea] | < 100 | < 100 | < 100 | < 100
Cc1cc(NC(=O)Nc2ccc(Oc3ccnc(-c4cnn(C)c4)c3)cc2F)nn1C(C)(C)C [Example 38, 1-(1-tert-butyl-5-methyl-1H-pyrazol-3-yl)-3-(2-fluoro-4-(2-(1-methyl-1H-pyrazol-4-yl)pyridin-4-yloxy)phenyl)urea] | < 100000 | < 100 | < 1000 | < 1000
Cn1cc(-c2cc(Oc3ccc(NC(=O)Nc4cc(C5CC5)nn4C)c(F)c3)ccn2)cn1 [Example 33, 1-(3-cyclopropyl-1-methyl-1H-pyrazol-5-yl)-3-(2-fluoro-4-(2-(1-methyl-1H-pyrazol-4-yl)pyridin-4-yloxy)phenyl)urea] | < 1000 | < 1000 | < 1000 | < 1000
Cn1cc(-c2cc(Oc3ccc(NC(=O)Nc4cnc(C(C)(C)C)o4)c(F)c3)ccn2)cn1 [Example 26, 1-(2-tert-butyloxazol-5-yl)-3-(2-fluoro-4-(2-(1-methyl-1H-pyrazol-4-yl)pyridin-4-yloxy)phenyl)urea] | – | < 100 | – | –
Cn1cc(-c2cc(Oc3ccc(NC(=O)Nc4nc5ccc(F)cc5s4)c(F)c3)ccn2)cn1 [Example 29, 1-(2-fluoro-4-(2-(1-methyl-1H-pyrazol-4-yl)pyridin-4-yloxy)phenyl)-3-(6-fluorobenzo[d]thiazol-2-yl)urea] | < 100000 | < 100 | < 1000 | –
Cn1cc(-c2cc(Oc3ccc(NC(=O)NC4CCN(C(C)(C)C)C4)c(F)c3)ccn2)cn1 (stereo not drawn) [Example 36, 1-(1-tert-butylpyrrolidin-3-yl)-3-(2-fluoro-4-(2-(1-methyl-1H-pyrazol-4-yl)pyridin-4-yloxy)phenyl)urea] | < 100000 | < 1000 | < 10000 | < 10000
Cc1c(C(C)(C)C)noc1NC(=O)Nc1ccc(Oc2ccnc(-c3cnn(C)c3)c2)cc1F [Example 31, 1-(3-tert-butyl-4-methylisoxazol-5-yl)-3-(2-fluoro-4-(2-(1-methyl-1H-pyrazol-4-yl)pyridin-4-yloxy)phenyl)urea] | < 100 | < 100 | < 100 | < 100
Cc1ncc(C(F)(F)F)cc1NC(=O)Nc1ccc(Oc2ccnc(-c3cnn(C)c3)c2)cc1F [Example 37, 1-(2-fluoro-4-(2-(1-methyl-1H-pyrazol-4-yl)pyridin-4-yloxy)phenyl)-3-(2-methyl-5-(trifluoromethyl)pyridin-3-yl)urea] | < 100 | < 100 | < 100 | < 100

From US8143293B2, “Kinase inhibitors useful for the treatment of myleoprolific diseases and other proliferative diseases” (Deciphera Pharmaceuticals, LLC, priority 2007, dated 2012)
